Measurements: ChEMBL document CHEMBL2203118, “Ethyl 2,4,6-trihydroxybenzoate is an agonistic ligand for liver X receptor that induces cholesterol efflux from macrophages without affecting lipid accumulation in HepG2 cells” (Bioorg Med Chem Lett, 2012)

Assays:
Details in all cases: hepg2, 1 µM
[1] = test system: HepG2; assay: Upregulation of FAS gene expression in human HepG2 cells at 1 uM by qPCR analysis; type: ADME, cell-based
[2] = test system: HepG2; assay: Upregulation of SCD1 gene expression in human HepG2 cells at 1 uM by qPCR analysis; type: ADME, cell-based
[3] = test system: HepG2; assay: Induction of lipid accumulation in human HepG2 cells assessed as increase in cellular triglyceride level at 1 uM by Oil Red O staining relative to control; type: cell-based
[4] = test system: HepG2; assay: Induction of lipid accumulation in human HepG2 cells assessed as cellular triglyceride concentration at 1 uM; type: cell-based
[5] = test system: HepG2; assay: Upregulation of SREBP-1 gene expression in human HepG2 cells at 1 uM by qPCR analysis; type: ADME, cell-based
[6] = test system: HepG2; assay: Upregulation of SREBP-1 gene expression in human HepG2 cells at 1 uM by immunoblot analysis; type: ADME, cell-based

Measured: Activity

O=S(=O)(c1ccccc1)N(CC(F)(F)F)c1ccc(C(O)(C(F)(F)F)C(F)(F)F)cc1 [T091317]
Toxic: all assays above
